The values below come from PMC11347369, “Synthesis and antibacterial action of 3’,6’-disubstituted spectinomycins” (The Journal of Antibiotics, 2024).

Converted amounts (≈) assume the structure as drawn. Where two headings read alike, the source gives them in different places.

The test system of one series is S. pneumoniae R6. Briefly: MIC broth microdilution, S. pneumoniae. Type of series: cell-based. The following applies: Streptococcus pneumoniae, read-out: Minimum Inhibitory Concentration. A general note: Broth dilution looks for growth in wells or tubes with falling amounts of substance.
The subject of a further series is E. faecium ATCC 19434. Briefly: MIC broth microdilution, E. faecium. The class given is cell-based. The following applies: Enterococcus faecium, ATCC19434; E. faecium ATCC 19434; read-out: Minimum Inhibitory Concentration.
For series [1], the system named is E. coli K12.
Series [2] concerns M. smegmatis strain MC^2 155. Briefly: MIC broth microdilution, M. smegmatis. Type of series: cell-based, Mycobacterium smegmatis. The conditions noted are these: Mycolicibacterium smegmatis, MC^2155, 72 h; M. smegmatis strain MC^2 155; 3 days; read-out: WT MIC.
The next series has as its system E. coli K12 ∆tolC. Briefly: microbe, parasite or virus in culture. Type of series: cell-based. The following applies: Escherichia coli, read-out: Minimum Inhibitory Concentration.
The subject of series [3] is M. tuberculosis H37Rv ∆1258c. Briefly: microbe, parasite or virus in culture. Type of series: cell-based. The following applies: Mycobacterium tuberculosis, 168 h.
Series [4] relates to M. abscessus ATCC 19977 ∆2780c. Briefly: microbe, parasite or virus in culture. The class given is cell-based, Mycobacterium abscessus. The conditions noted are these: Mycobacteroides abscessus, ATCC19977, 72 h, read-out: ∆2780c MIC.
Series [5] relates to M. abscessus ATCC 19977. Briefly: microbe, parasite or virus in culture. The following applies: Mycobacteroides abscessus, ATCC19977, 72 h, read-out: WT MIC.
Series [6] deals with K. pneumoniae ATCC 700603. Briefly: MIC broth microdilution, K. pneumoniae. Type of series: cell-based, Klebsiella pneumoniae. The following applies: for MIC: Klebsiella pneumoniae.
A further series relates to A. baumannii ATCC 19606. Briefly: MIC broth microdilution, A. baumannii. The class given is cell-based, Acinetobacter baumannii. The conditions noted are these: A. baumannii ATCC 19606; for MIC: Acinetobacter baumannii, ATCC19606, read-out: Minimum Inhibitory Concentration.
In series [7] the test system is S. epidermidis ATCC 14990. Briefly: MIC broth microdilution, S. epidermidis. Type of series: cell-based. The following applies: Staphylococcus epidermidis.
The test system of series [8] is M. abscessus ATCC 19977.
In a further series the test system is E. faecalis ATCC 29212. Briefly: MIC broth microdilution, E. faecalis. Type of series: cell-based. The following applies: Enterococcus faecalis, ATCC29212; E. faecalis ATCC 29212; read-out: Minimum Inhibitory Concentration.
The next series relates to S. pyogenes ATCC 700294. Briefly: MIC broth microdilution, S. pyogenes. The class given is cell-based. The conditions noted are these: Streptococcus pyogenes, ATCC700294; S. pyogenes ATCC 700294; read-out: Minimum Inhibitory Concentration.
In a further series the test system is P. aeruginosa ATCC 15692. Briefly: MIC broth microdilution, P. aeruginosa. Type of series: cell-based, Pseudomonas aeruginosa. The conditions noted are these: P. aeruginosa ATCC 15692; for MIC: Pseudomonas aeruginosa, ATCC15692, read-out: Minimum Inhibitory Concentration.
For series [9], the system named is M. tuberculosis H37Rv. Briefly: microbe, parasite or virus in culture. The conditions noted are these: Mycobacterium tuberculosis, 168 h, read-out: WT MIC.
The target in series [10] is T1, M. smegmatis ribosomes (strain SZ380) (Mycolicibacterium smegmatis, UniProt A0QSG6).
T1 construct: S30 extracts were prepared by addition of dithiothreitol (DTT) to 1 mM and centrifugation; endogenous in cells; host or cells: M. smegmatis strain SZ380, S30 cell extract
T1 sequence (A0QSG6 whole entry): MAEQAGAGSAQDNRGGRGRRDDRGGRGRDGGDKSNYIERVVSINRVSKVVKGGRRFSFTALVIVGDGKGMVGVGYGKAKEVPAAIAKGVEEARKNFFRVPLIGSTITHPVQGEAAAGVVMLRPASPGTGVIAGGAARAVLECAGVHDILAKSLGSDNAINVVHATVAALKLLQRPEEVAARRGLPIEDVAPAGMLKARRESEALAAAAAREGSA
The following applies: read-out: Ribo. IC50; previously reported; cited from earlier work.

For series [11], the system named is M. tuberculosis H37Rv.
For series [12], the system named is E. coli K12. Briefly: microbe, parasite or virus in culture. The following applies: Escherichia coli, K12, read-out: Minimum Inhibitory Concentration.
Another series has as its system S. aureus USA300. Briefly: MIC broth microdilution, S. aureus. The class given is cell-based. The following applies: Staphylococcus aureus.
Another series has as its system Gram-positive species. Briefly: MIC, Gram-positive panel compared to SPC. Type of series: cell-based. The following applies: against all Gram-positive species.
In series [13] the target is T1, M. smegmatis ribosomes (strain SZ380). Briefly: Mycobacterial cell-free translation inhibition assay. The class given is biochemical, Mycobacterium smegmatis. How it is done: Mycobacterial cell-free translation inhibition assays were performed as described previously. In brief, M. smegmatis strain SZ380 bacterial cells were disrupted and emulsified with a microfluidizer processor (Microfluidics, Westwood, MA, USA) at 25,000 lb/in^2. S30 extracts were prepared by addition of dithiothreitol (DTT) to 1 mM and centrifugation at 30,000 × g at 4 °C. Translation reaction mixtures containing either test article or DMSO vehicle control and 4 μl of the S30 extract, 0.2 mM amino acid mix, 6 μg tRNA (Sigma), 0.4 μg hFluc mRNA, 0.3 μl protease inhibitor (complete, EDTA-free, Roche), 12 U RNAse inhibitor (Ribolock, Thermo Scientific), 6 μl S30 premix without amino acids (Promega), plus water to a final reaction volume of 15 μl were incubated for 1 h at 37 °C. The reaction was stopped on ice before adding 75 μl of luciferase assay reagent (Promega) and recording of luminescence. Regression analysis and IC50 calculations were performed using GraphPad Prism version 9.3.1 by using the equation [log(inhibitor) vs. response–Variable slope (four parameters)] with the fitting method: least squares (ordinary) fit. Y = Bottom + (Top-Bottom)/(1 + 10^((X-LogIC50))).

For `CN[C@@H]1[C@H](O)[C@H](NC)[C@H]2O[C@@]3(O)C(=O)C[C@@H](C)O[C@H]3O[C@@H]2[C@H]1O` [SPC (1), spectinomycin], the MIC is 16 µg/mL (≈ 48.1 µM) in the series with S. pneumoniae R6; 256 µg/mL (≈ 770 µM) in the series on E. faecium ATCC 19434; 64 µg/mL (≈ 193 µM) in series [2]; 64 µg/mL (≈ 193 µM) in the series on E. coli K12 ∆tolC; 4 µg/mL (≈ 12 µM) in series [3]; 16 µg/mL (≈ 48.1 µM) in series [4]. The MIC is 512 µg/mL (≈ 1540 µM) in the series on M. abscessus ATCC 19977 [5]; 512 µg/mL (≈ 1540 µM) in series [6] (ATCC700603, read-out: Minimum Inhibitory Concentration); greater than 1020 µg/mL in the series on A. baumannii ATCC 19606; 256 to 512 µg/mL (≈ 770 to 1540 µM) in series [7] (ATCC14990, read-out: Minimum Inhibitory Concentration); 256 µg/mL (≈ 770 µM) in the series with E. faecalis ATCC 29212; 32 µg/mL (≈ 96.3 µM) in the series with S. pyogenes ATCC 700294. Besides, the MIC in the series on P. aeruginosa ATCC 15692 worked out at 1020 µg/mL (≈ 3080 µM); in the series on M. tuberculosis H37Rv [9], 64 µg/mL (≈ 193 µM); in the series on E. coli K12 [12], 128 µg/mL (≈ 385 µM); in the series on S. aureus USA300 (USA300, read-out: Minimum Inhibitory Concentration), 512 µg/mL (≈ 1540 µM). For the same molecule, the “E. coli Efflux Ratio” value in the series on E. coli K12 [1] (E. coli K12 MIC versus K12 ∆tolC MIC) was determined as 2. The “Efflux Ratio” value stood at 32 in the series with M. abscessus ATCC 19977 [8] and 16 in the series on M. tuberculosis H37Rv [11]. In addition, the IC50 (as a rule, the concentration that gives 50% inhibition) in series [10] is 0.8 µM.
With `CCCC[C@@H]1CC(=O)[C@]2(O)O[C@@H]3[C@@H](NC)[C@@H](O)[C@@H](NC)[C@H](O)[C@H]3O[C@@H]2O1` [TroSPC (2), trospectomycin, reference compound], the MIC was found to be 4 µg/mL (≈ 10.7 µM) with S. pneumoniae R6; 64 µg/mL (≈ 171 µM) with E. faecium ATCC 19434; 32 µg/mL (≈ 85.5 µM) in series [2]; 16 µg/mL (≈ 42.7 µM) in the series with E. coli K12 ∆tolC; 2 µg/mL (≈ 5.34 µM) in series [3]; 16 µg/mL (≈ 42.7 µM) in [4]. In addition, the MIC in the series with M. abscessus ATCC 19977 [5] was 64 µg/mL (≈ 171 µM); in series [6] (ATCC700603, K. pneumoniae ATCC 700603, read-out: Minimum Inhibitory Concentration), greater than 64 µg/mL; with A. baumannii ATCC 19606, greater than 64 µg/mL; in series [7] (ATCC14990, S. epidermidis ATCC 14990, read-out: Minimum Inhibitory Concentration), 32 µg/mL (≈ 85.5 µM); in the series on E. faecalis ATCC 29212 it was 64 µg/mL (≈ 171 µM); in the series on S. pyogenes ATCC 700294, 4 to 8 µg/mL (≈ 10.7 to 21.4 µM). Moreover, the MIC was greater than 64 µg/mL in the series with P. aeruginosa ATCC 15692; 32 µg/mL (≈ 85.5 µM) in the series with M. tuberculosis H37Rv [9]; greater than 64 µg/mL in the series with E. coli K12 [12]; 64 µg/mL (≈ 171 µM) in the series with S. aureus USA300 (S. aureus USA300, read-out: Minimum Inhibitory Concentration). In addition, the “E. coli Efflux Ratio” value in the series with E. coli K12 [1] is given as greater than 4. In the series on Gram-positive species, the “increase in activity compared to SPC” value is listed as greater than 4 fold. In [13], this molecule returned an IC50 of 0.51 µM. Further, the “Minimum Inhibitory Concentration” value (in [6] (K. pneumoniae ATCC 700603); with A. baumannii ATCC 19606; with P. aeruginosa ATCC 15692) was greater than 64 µg/mL in each case. Moreover, the “Efflux Ratio” value in the series with M. abscessus ATCC 19977 [8] is given as 4; in the series on M. tuberculosis H37Rv [11] it was 16.
